The structures appear in SMILES notation. pIC50: −log10 of the molar value.

T1 sequence (P31421 19-872): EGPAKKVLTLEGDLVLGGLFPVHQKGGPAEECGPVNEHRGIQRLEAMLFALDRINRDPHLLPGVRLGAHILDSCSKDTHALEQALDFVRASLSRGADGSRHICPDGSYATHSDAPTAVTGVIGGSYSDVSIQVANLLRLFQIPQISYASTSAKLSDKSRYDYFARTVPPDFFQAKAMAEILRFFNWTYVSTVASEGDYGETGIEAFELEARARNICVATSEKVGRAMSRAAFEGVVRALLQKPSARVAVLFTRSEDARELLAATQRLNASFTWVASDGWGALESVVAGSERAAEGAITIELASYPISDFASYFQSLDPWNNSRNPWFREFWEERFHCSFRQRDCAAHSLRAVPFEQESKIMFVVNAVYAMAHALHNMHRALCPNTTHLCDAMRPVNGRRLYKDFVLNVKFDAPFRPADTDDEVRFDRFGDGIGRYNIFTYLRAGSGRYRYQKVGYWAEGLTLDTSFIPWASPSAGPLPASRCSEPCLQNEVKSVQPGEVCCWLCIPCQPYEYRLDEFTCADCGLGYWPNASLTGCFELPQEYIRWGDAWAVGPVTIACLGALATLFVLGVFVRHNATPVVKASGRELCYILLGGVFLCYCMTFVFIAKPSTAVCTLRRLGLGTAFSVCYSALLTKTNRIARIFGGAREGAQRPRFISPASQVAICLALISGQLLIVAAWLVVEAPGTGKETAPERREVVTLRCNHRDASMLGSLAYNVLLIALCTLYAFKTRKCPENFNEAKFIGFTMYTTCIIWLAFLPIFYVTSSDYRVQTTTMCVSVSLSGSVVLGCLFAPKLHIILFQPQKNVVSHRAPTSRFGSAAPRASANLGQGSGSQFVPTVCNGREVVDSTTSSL

This assay concerns the target T1, rat mGlu2 receptor (Rattus norvegicus, UniProt P31421).
T1 construct: expressed in transfected cells; host or cells: CHO cells
As to the kind of experiment: [35S]GTPγS binding test (1), membranes of CHO cells stably expressing rat mGlu2. The conditions noted are these: inhibition of glutamic acid (20 μM)-stimulated specific [35S]GTPγS binding. In kind it is biochemical. As for the experimental part: (Preparation of Crude Membrane Fraction of CHO Cells Stably Expressing the Rat Metabotropic Glutamate Receptor (mGlu2))
CHO cells stably expressing the rat mGlu2 receptor were cultured in a 10% dialyzed fetal bovine serum-containing Dulbecco's Modified Eagle's Medium [1% proline, 50 units/mL penicillin, 50 μg/mL streptomycin, and 2 mM L-glutamine (to be added when used)] at 37° C. in 5% CO2. Confluent cells were washed with PBS(−) twice, and were then harvested with a cell scraper. Then, the cells were centrifuged at 4° C. at 1000 rpm for 5 minutes to collect. The obtained precipitate was suspended in a 20 mM HEPES buffer (pH 7.4), and then homogenized with a Teflon® homogenizer. The resultant was centrifuged at 4° C. at 48,000×g for 20 minutes to obtain a precipitate again. The obtained precipitate was washed twice by centrifugation, and was then homogenized with the above-mentioned buffer, so as to obtain a crude membrane fraction. The obtained crude membrane fraction was preserved at −80° C.
The frozen membrane fraction as prepared above was thawed when used, and it was then diluted with a binding test buffer (final concentration: 20 mM HEPES, 100 mM NaCl, 10 mM MgCl2, 8.4 μM GDP, 10 μg/mL saponin, and 0.1% BSA). The compound of the Example was added to a membrane fraction (10 μg protein/assay), and the obtained mixture was then incubated at 30° C. for 20 minutes. Thereafter, glutamic acid (final concentration: 20 μM) and [^35S]GTPγS (final concentration: 0.15 nM) were added to the reaction mixture, and then incubated at 30° C. for 1 hour. After completion of the incubation, the reaction mixture was subjected to filtration over a Whatman GF/C filter that had previously been immersed in a 20 mM HEPES buffer (pH 7.4), and the filter was then washed three times with 300 μL of ice-cold 20 mM HEPES buffer (pH 7.4). A scintillation cocktail was added to the resulting filter, and membrane-bound radioactivity was then measured with a liquid scintillation counter.
The amount of [^35S]GTPγS bound in the case of carrying out the above described reaction in the absence of glutamic acid was defined as non-specific binding. The difference between such non-specific bound and the amount of [^35S]GTPγS bound in the presence of glutamic acid was defined as specific binding. Using non-linear analysis, a concentration-inhibition curve was produced. The concentration of the compound of each Example that caused 50% inhibition (IC50 value) of specific binding was determined from each concentration-inhibition curve.
By pIC50 is commonly meant −log10 of the IC50, conventionally taken in molar units. Lower therefore signals a large IC50. `Cn1ncc(-c2nc(-c3cccc(S(N)(=O)=O)c3)no2)c1C#Cc1ccc(C(F)(F)F)cn1` [Example 7, 3-[5-(1-Methyl-5-{[5-(trifluoromethyl)pyridin-2-yl]ethynyl}-1H-pyrazol-4-yl)-1,2,4-oxadiazol-3-yl]benzenesulfonamide]: the pIC50 was 7.75.

In the case of `CN(C)CCNS(=O)(=O)c1ccc(-c2noc(-c3cnn(C)c3CCc3ccc(C(F)(F)F)cc3)n2)cc1` [Example 31, N-[2-(Dimethylamino)ethyl]-4-[5-(1-methyl-5-{2-[4-(trifluoromethyl)phenyl]ethyl}-1H-pyrazol-4-yl)-1,2,4-oxadiazol-3-yl]benzenesulfonamide], the pIC50 is 7.66. This pIC50 and that of the compound before are within 0.2 log units of each other.

`Cn1ncc(-c2nc(-c3ccc(S(N)(=O)=O)cc3)no2)c1CCc1ccc(C(F)(F)F)cc1` [Example 19, 4-[5-(1-Methyl-5-{2-[4-(trifluoromethyl)phenyl]ethyl}-1H-pyrazol-4-yl)-1,2,4-oxadiazol-3-yl]benzenesulfonamide]: the pIC50 was 8.06.

In turn, `Cn1ncc(-c2nc(-c3cccc(S(N)(=O)=O)c3)no2)c1COc1cccc(F)c1` [Example 68, 3-(5-{5-[(3-Fluorophenoxy)methyl]-1-methyl-1H-pyrazol-4-yl}-1,2,4-oxadiazol-3-yl)benzenesulfonamide] had a pIC50 of 8.16.

`Cn1ncc(-c2noc(-c3ccc(S(N)(=O)=O)cc3)n2)c1CCc1ccc(C(F)(F)F)cc1` [Example 3, 4-[3-(1-Methyl-5-{2-[4-(trifluoromethyl)phenyl]ethyl}-1H-pyrazol-4-yl)-1,2,4-oxadiazol-5-yl]benzenesulfonamide] had a pIC50 of 8.44.

Compound `Cn1ncc(-c2nc(-c3ccc(S(N)(=O)=O)cc3)no2)c1OCc1ccc(C(F)(F)F)cc1` [Example 56, 4-[5-(1-Methyl-5-{[4-(trifluoromethyl)benzyl]oxy}-1H-pyrazol-4-yl)-1,2,4-oxadiazol-3-yl]benzenesulfonamide] showed a pIC50 of 7.35.

Take `Cn1ncc(-n2cc(-c3ccc(S(N)(=O)=O)cc3)cn2)c1CCc1ccc(C(F)(F)F)cc1` [Example 6, 4-(1′-Methyl-5′-{2-[4-(trifluoromethyl)phenyl]ethyl}-1′H-1,4′-bipyrazol-4-yl)benzenesulfonamide]: the pIC50 is 7.23. The pIC50 values of the last two compounds are within 0.2 log units of each other.

Take `Cn1ncc(-c2nc(-c3cccc(S(N)(=O)=O)c3)no2)c1CCc1ccc(C(F)(F)F)cn1` [Example 8, 3-[5-(1-Methyl-5-{2-[5-(trifluoromethyl)pyridin-2-yl]ethyl}-1H-pyrazol-4-yl)-1,2,4-oxadiazol-3-yl]benzenesulfonamide]: the pIC50 is 7.01.

The compound `Cc1ccc(OCc2c(-c3nc(-c4cccc(S(N)(=O)=O)c4)no3)cnn2C)cc1` [Example 51, 3-(5-{1-Methyl-5-[(4-methylphenoxy)methyl]-1H-pyrazol-4-yl}-1,2,4-oxadiazol-3-yl)benzenesulfonamide] had a negative-log IC50 (pIC50) of 8.09.

Compound `Cn1ncc(-c2nc(-c3cccc(S(=O)(=O)O)c3)no2)c1COc1ccc(C(F)(F)F)cc1` [Example 134, 3-[5-(1-Methyl-5-{[4-(trifluoromethyl)phenoxy]methyl}-1H-pyrazol-4-yl)-1,2,4-oxadiazol-3-yl]benzenesulfonic acid] had a pIC50 of 7.60.

Compound `Cn1ncc(-c2nc(-c3cccc(S(N)(=O)=O)c3)no2)c1-c1cnn(-c2ccc(Cl)cc2)c1` [Example 25, 3-{5-[1′-(4-Chlorophenyl)-2-methyl-1′H,2H-3,4′-bipyrazol-4-yl]-1,2,4-oxadiazol-3-yl}benzenesulfonamide] gave a pIC50 of 7.56.

Compound `NS(=O)(=O)c1cccc(-c2noc(-c3cnn(CF)c3CCc3ccc(C(F)(F)F)cc3)n2)c1` [Example 41, 3-{5-[1-(Fluoromethyl)-5-{2-[4-(trifluoromethyl)phenyl]ethyl}-1H-pyrazol-4-yl]-1,2,4-oxadiazol-3-yl}benzenesulfonamide] had a pIC50 of 8.04.
